According to publication PMC10350920, “Development of a 2,4-Diaminothiazole Series for the Treatment of Human African Trypanosomiasis Highlights the Importance of Static–Cidal Screening of Analogues” (Journal of Medicinal Chemistry, 2023):
Read-outs that look alike come from different tables or passages of the source.

Assays:
[1] = Human microsomal intrinsic clearance; format: in vitro ADME; details: second value of mouse/human cell
human MRC-5 fibroblasts = test: Mammalian cell counter screen (MRC-5); format: cell-based; details: for SI: selectivity index (EC50 MRC5/EC50 T. brucei)
Procedure: Drug sensitivity assays with BSF T. b. brucei “single marker” S427 and human MRC-5 fibroblasts were conducted as previously described.[43]

[2] = test system: Tb927.8.6290 overexpressing cell lines (WT); test: Drug sensitivity, line overexpressing Tb927.8.6290 WT; format: cell-based, T. b. brucei; details: for EC50: Trypanosoma brucei
Procedure: (§1) Drug sensitivity assays were carried out with BSF T. b. brucei “single marker” S427 or BSF T. b. brucei, Lister 427, MiTat 1.2, clone 221a 2T1 cells,[45] cells grown at 37 °C with 5% CO2 in an HMI-9T medium[46] as previously described.[47] 2T1 cells were initially maintained with 1 μg mL^–1 puromycin and 1 μg mL^–1 phleomycin prior to transfection or 2.5 μg mL^–1 hygromycin and 1 μg mL^–1 phleomycin after transfection. Induction of overexpression was achieved by the addition of 1 μg mL^–1 tetracycline to the culture medium.
(§2) The following primers were used to PCR amplify Tb927.8.6290 from genomic DNA isolated from wild-type and 38-resistant trypanosomes 5′-[…]-3′ (PacI site in bold) and 5′-[…]-3′ (BamHI site in bold). The PCR products (1272 bp) were then cloned into the pRPa plasmid.[53] The accuracy of the plasmid constructs was confirmed by in-house Sanger sequencing and then linearized with AscI prior to transfection. The linearized plasmids were introduced into 2T1 T. b. brucei cells following removal of puromycin from the media and selected with 2.5 μg mL^–1 hygromycin and 1 μg mL^–1 phleomycin. Two independent clones were selected for further studies.

BSF trypanosomes = test: Static–cidal assay; format: cell-based, T. brucei; details: lower concentrations cytostatic
Text: To complement our established T. brucei cell-based screen, in the course of these studies, we developed an assay that allows discrimination of compounds that are cytostatic from those that are cytocidal.[15] In this assay, static and cidal compounds are categorized by analysis of growth curves, with cidal compounds causing a decrease in parasite numbers. Commonly, phenotypic screens with T. brucei are end-point assays with live-cell indicators used as the final readout. In our […] assay, bloodstream trypanosomes are grown in the presence of test compounds for 3 days with a starting cell density well below the assay limit of detection, thus making it impossible to distinguish cidal from static compounds. To assess if compounds within this diaminothiazole series kill trypanosomes or merely stop parasite growth, we profiled a panel of compounds in our static–cidal assay. […] Similarly in rats, the concentration would be below the level for cidal activity.
An assay to assess initial indications of the cidal nature of the compound series was conducted as previously reported.[15] […] After 4 h, the time = 0 plate was read using a PerkinElmer Victor 3 plate reader (excitation 528 nm; emission 590 nm). […]

[3] = test system: Tb927.8.6290 overexpressing cell lines (V241F/A258V); test: Drug sensitivity, line overexpressing Tb927.8.6290 V241F/A258V; format: cell-based, T. b. brucei; details: for EC50: Trypanosoma brucei
Procedure: as §1, §2

T. b. brucei S427 = test: Stage 1 efficacy study in rats; format: in vivo, male SD rats; details: infected rats, single dose, 100 mg kg^–1 PO
Procedure: Stage 1 efficacy experiments using T. b. brucei S427 were performed as described,[44] with minor modifications. In brief, male SD rats (38) or female HRN (16) and NMRI (16, 38) mice (3–5 per group) were injected intraperitoneally with 1 × 10^4 BSFs of T. brucei. These BSFs come from a stock of cryopreserved stabilates containing 10% glycerol. The stabilate was suspended in 20 mM Hanks’ balanced salt solution with glucose to obtain a trypanosome concentration of 5 × 10^4 cells mL^–1. Each mouse was injected with 0.2 mL. […] Dose concentrations were 1.25, 2.5, 5, 7.5, 10, 30, and 50 mg kg^–1 free base (16) or 100 mg kg^–1 free base (38). The doses were prepared fresh daily, using 5% DMSO/40% PEG400/55% Milli-Q (16) or 15% solutol/85% Milli-Q (38), and the dose volume was 10 mL kg^–1. One group of three mice was an untreated control group.

T. brucei RES II = test: Drug sensitivity, compound 38-resistant clone RES II; format: cell-based, T. b. brucei
Procedure: as §1
Compound-resistant cell lines were generated by subculturing a clone of T. brucei in the continuous presence of 38. Starting at sublethal concentrations, drug concentrations in two independent cultures were increased in a stepwise manner, usually 2-fold. When parasites were able to survive and grow in concentrations of drugs equivalent to more than 10 times the established EC50 value, the resulting cell lines were cloned by limiting dilution in the presence of the compound. Two clones (RES I-II) were selected for further biological study. A standard alkaline lysis protocol was used to isolate genomic DNA from compound-resistant bloodstream T. brucei parasites (∼1 × 10^8). Whole genome sequencing was performed using a DNB-seq next-generation sequencing platform (BGI, Hong Kong). Sequencing reads (150 bp) were aligned to the T. brucei TREU927 genome (v39; tritrypDB) using Bowtie2[48] and Samtools[49] software. […] Samtools and BCFtools[52] (mpileup) were used to call SNP and indels compared with the wild-type starter clone, where the overall quality score (QUAL) was >100. Artemis[50] was used to analyze chromosome and gene copy number variation, as well as visualization of SNPs.

[4] = mouse, in vivo, ip

| Compound | CLint (human) [1] [mL·min/g] | SI (human MRC-5 fibroblasts) | EC50 ([2]; read-out: EC50, WT +TET) [µM] | EC50 ([2]; read-out: EC50, WT –TET) [µM] | fold shift, WT ([2]; −TET vs +TET EC50, in brackets) | concentration that is cidal (reduction in parasite number) (BSF trypanosomes) | EC50 ([3]; read-out: EC50, V241F/A258V +TET) [µM] | EC50 ([3]; read-out: EC50, V241F/A258V –TET) [µM] | fold shift, V241F/A258V ([3]; −TET vs +TET EC50, in brackets) | stage 1 efficacy, parasitemia (T. b. brucei S427) | EC50 (T. brucei RES II; Trypanosoma brucei, read-out: EC50, RES II) [µM] | fold resistance, RES II (T. brucei RES II; relative to the parental wild-type, in brackets) | EC50 (human MRC-5 fibroblasts; mean values, number of replicates in parentheses, read-out: MRC-5 EC50) [µM] | exposure in HRN mice relative to NMRI mice [4] [fold] |
| --- | --- | --- | --- | --- | --- | --- | --- | --- | --- | --- | --- | --- | --- | --- |
| CC(C)(O)CC(=O)c1sc(Nc2ccc(F)c(F)c2)nc1N [Compound 38, 1-(4-Amino-2-((3,4-difluorophenyl)amino)thiazol-5-yl)-3-hydroxy-3-methylbutan-1-one] | < 0.5 | 256 | 10 ± 0.25 | 0.4 ± 0.025 | 26 | 50 µM | 12 ± 0.69 | 0.27 ± 0.018 | 45 | no reduction in parasitemia | 8.2 ± 0.49 | 26 |  |  |
| (4-Amino-2-(cyclohexylamino)thiazol-5-yl)(2,6-difluorophenyl)methanone [Compound 16] |  | 11 |  |  |  | above 5.6 μM |  |  |  |  |  |  | 1.2 | 15 |
